The values that follow come from patent US8846569B2, “Pesticidal bis-organosulfur compounds” (Merial Limited, priority 2009, dated 2014).

Like-named read-outs stand apart in the source and are kept apart here. Where only a bound is given, the exact number is not on record here.

One data set concerns Heliothis virescens. Description: Tobacco budworm (Heliothis virescens) diet/egg test. In kind it is in vivo. Particulars: for mortality at 2500 ppm: Heliothis virescens, 120 h, read-out: mortality in comparison with untreated controls. The procedure:
For evaluating control of tobacco budworm (Heliothis virescens) the test unit consisted of 96-well-microtiter plates containing an insect diet and 15-25 H. virescens eggs.
The compounds were formulated using a solution containing 75% v/v water and 25% v/v DMSO. Different concentrations of formulated compounds were sprayed onto the insect diet at 10 μl, using a custom built micro atomizer, at two replications.
(§1) After application, microtiter plates were incubated at about 28±1° C. and about 80±5% relative humidity for 5 days. Egg and larval mortality was then visually assessed.
The biological activity shown tables under CB.1 and CB.2 was evaluated on scale range from 0% as showing no biological activity to 100% as having total control. The biological tests were conducted as described above.

The next data set relates to Megoura viciae. Description: Vetch aphid (Megoura viciae) leaf disk test. Particulars: foliar, 120 h, read-out: mortality in comparison with untreated controls. The data set is classed as in vivo. The procedure: For evaluating control of vetch aphid (Megoura viciae) through contact or systemic means the test unit consisted of 24-well-microtiter plates containing broad bean leaf disks.
The compounds were formulated using a solution containing 75% v/v water and 25% v/v DMSO. Different concentrations of formulated compounds were sprayed onto the leaf disks at 2.5 μl, using a custom built micro atomizer, at two replications.
After application, the leaf disks were air-dried and 5-8 adult aphids placed on the leaf disks inside the microtiter plate wells. The aphids were then allowed to suck on the treated leaf disks and incubated at about 23±1° C. and about 50±5% relative humidity for 5 days. Aphid mortality and fecundity was then visually assessed.

In a further data set the test system is Myzus persicae. Kind of data set: Green peach aphid (Myzus persicae) artificial diet test. In kind it is in vivo. Particulars: 72 h, read-out: mortality in comparison with untreated controls. An excerpt: For evaluating control of green peach aphid (Myzus persicae) the test unit consisted of 96-well-microtiter plates containing liquid artificial diet under an artificial membrane.
The compounds were formulated using a solution containing 75% v/v water and 25% v/v DMSO. Different concentrations of formulated compounds were pipetted into the aphid diet, using a custom built pipetter, at two replications.
After application, 5-8 adult aphids were placed on the artificial membrane inside the microtiter plate wells. The aphids were then allowed to suck on the treated aphid diet and incubated at about 23±1° C. and about 50±5% relative humidity for 3 days. Aphid mortality and fecundity was then visually assessed.

For the next data set, the system named is Ceratitis capitata. Kind of data set: Mediterranean fruitfly (Ceratitis capitata) diet/egg test. The note with it: 120 h, read-out: mortality in comparison with untreated controls. The data set is classed as in vivo. The procedure: For evaluating control of Mediterranean fruitfly (Ceratitis capitata) the test unit consisted of microtiter plates containing an insect diet and 50-80 C. capitata eggs.
The compounds were formulated using a solution containing 75% v/v water and 25% v/v DMSO. Different concentrations of formulated compounds were sprayed onto the insect diet at 5 nl, using a custom built micro atomizer, at two replications.
as §1

The next data set has as its system Anthonomus grandis. Description: Boll weevil (Anthonomus grandis) diet/egg test. In kind it is in vivo. Particulars: 120 h, read-out: mortality in comparison with untreated controls. The procedure:
For evaluating control of boll weevil (Anthonomus grandis) the test unit consisted of 24-well-microtiter plates containing an insect diet and 20-30 A. grandis eggs.
The compounds were formulated using a solution containing 75% v/v water and 25% v/v DMSO. Different concentrations of formulated compounds were sprayed onto the insect diet at 20 μl, using a custom built micro atomizer, at two replications.
After application, microtiter plates were incubated at about 23±1° C. and about 50±5% relative humidity for 5 days. Egg and larval mortality was then visually assessed.

The test system of the next data set is Aedes aegypti. Kind of data set: Aedes aegypti neonate larvae motility assay. In kind it is in vivo. Particulars: larval motility, dose response. The procedure:
Compounds formulated in 100% DMSO are tested in microtiter plates containing 180 ul 1× Luria Broth media and 10 neonate A. aegypti larvae. The efficacy of a compound is determined based on the motility of the larvae as compared to average motility of control wells containing DMSO only. A dose response assay is conducted with compounds with >80% reduction in motility in the primary assay to determine an EC50 value. Selected compounds are advanced to insecticide secondary assays.

Setting [1] is: 2500 ppm, adult aphids on sprayed broad bean leaf disks, 5 days.
[2] abbreviates: 2500 ppm, adult aphids on treated artificial diet, 3 days.
[3] abbreviates: 2500 ppm, egg and larval mortality, 5 days.

Consider `N#CC(CCC(F)(F)F)S(=O)(=O)CCC(F)(F)C(F)(F)F` (centres unmarked) [CE. 1, reference compound], for which the “activity in [%]” value in the data set with Heliothis virescens (800 ppm, scale 0% no biological activity to 100% total control) amounted to 0%.
Usually mortality stands for the share of the test organisms that died. For orientation: EC50 means the concentration giving half of the maximal effect. For `CCOC(=O)C(CCSC(F)(F)F)S(=O)(=O)CCC(F)(F)C(F)(F)F` (centres unmarked) [II-3, Ethyl 2-(3,3,4,4,4-Pentafluoro-butane-1-sulfonyl)-4-trifluoromethylsulfanyl-butyrate], the mortality at 2500 ppm in the data set with Megoura viciae (setting [1]), in the data set with Myzus persicae (setting [2]), in the data set with Ceratitis capitata (setting [3]) and in the data set with Anthonomus grandis (setting [3]) was above 90% throughout. In the data set with Aedes aegypti, this compound registered a 50% effective concentration (EC50) below 5 µg/mL.
As for `CCOC(=O)C(C)(CCSC(F)(F)F)S(=O)(=O)CCC(F)(F)C(F)(F)F` (centres unmarked) [II-4, Ethyl 2-methyl-2-(3,3,4,4,4-pentafluoro-butane-1-sulfonyl)-4-trifluoromethylsulfanyl-butyrate], the mortality at 2500 ppm with Megoura viciae (setting [1]), in the data set on Myzus persicae (setting [2]), in the data set on Ceratitis capitata (setting [3]) and with Anthonomus grandis (setting [3]) was above 90% throughout. Also, in the data set with Aedes aegypti, the EC50 was below 5 µg/mL.
As a reminder, the melting point is the temperature, or range, at which the solid turns liquid. In turn, `N#CC(CCSC(F)(F)F)S(=O)(=O)Cc1cccc(C(F)(F)F)c1` (centres unmarked) [II-5, 2-(3-Trifluoromethyl-phenylmethanesulfonyl)-4-trifluoromethylsulfanyl-butyronitrile] had a melting point of 100 to 102 °C. The compound further came in with an EC50 with Aedes aegypti below 5 µg/mL.
In turn, `CC(C#N)(CCSC(F)(F)F)S(=O)(=O)Cc1cccc(C(F)(F)F)c1` (centres unmarked) [II-6, 2-Methyl-2-(3-trifluoromethyl-phenylmethanesulfonyl)-4-trifluoromethylsulfanyl-butyronitrile] gave a melting point of 92 to 94 °C. The compound also came in with an EC50 in the data set with Aedes aegypti below 5 µg/mL.
In turn, `N#CC(CCSC(F)(F)F)S(=O)(=O)Cc1ccc(Cl)nc1` (centres unmarked) [II-7, 2-(6-Chloro-pyridin-3-ylmethanesulfonyl)-4-trifluoromethylsulfanyl-butyronitrile] displayed a melting point of 122 to 124 °C.
Compound `N#CC(CCSC(F)(F)F)S(=O)(=O)Cc1ccc(C(F)(F)F)nc1` (centres unmarked) [II-9, 2-(6-Trifluoromethyl-pyridin-3-ylmethanesulfonyl)-4-trifluoromethylsulfanyl-butyronitrile] yielded a melting point of 129 to 130 °C.
The compound `CC(C#N)(CCSC(F)(F)F)S(=O)(=O)Cc1ccc(C(F)(F)F)nc1` (centres unmarked) [II-10, 2-Methyl-2-(6-trifluoromethyl-pyridin-3-ylmethanesulfonyl)-4-trifluoromethylsulfanyl-butyronitrile] registered a melting point of 109 to 110 °C.
The same measure, in the same setting: the result for `N#CC(CCSC(F)(F)F)S(=O)(=O)Cc1ccc(C(F)(F)F)cc1` (centres unmarked) [II-11, 2-(4-Trifluoromethyl-phenylmethanesulfonyl)-4-trifluoromethylsulfanyl-butyronitrile] reads 153 to 155 °C; that for `CC(C#N)(CCSC(F)(F)F)S(=O)(=O)Cc1ccc(C(F)(F)F)cc1` (centres unmarked) [II-12, 2-Methyl-2-(4-trifluoromethyl-phenylmethanesulfonyl)-4-trifluoromethylsulfanyl-butyronitrile], 102 to 104 °C; that for `N#CC(CCSC(F)(F)F)S(=O)(=O)Cn1ccc(C(F)(F)F)n1` (centres unmarked) [II-13, 2-(3-Trifluoromethyl-pyrazol-1-ylmethanesulfonyl)-4-trifluoromethylsulfanyl-butyronitrile], 65 to 67 °C.
Take `CC(C#N)(CCSC(F)(F)F)S(=O)(=O)Cn1ccc(C(F)(F)F)n1` (centres unmarked) [II-14, 2-Methyl-2-(3-trifluoromethyl-pyrazol-1-ylmethanesulfonyl)-4-trifluoromethylsulfanyl-butyronitrile]: the mortality at 2500 ppm with Ceratitis capitata (setting [3]) and with Anthonomus grandis (setting [3]) was above 90% in each case.
Turning to `N#CC(CCSC(F)(F)F)[S+]([O-])CCC(F)(F)C(F)(F)F` (centres unmarked) [II-16, 2-(3,3,4,4,4-Pentafluoro-butane-1-sulfinyl)-4-trifluoromethylsulfanyl-butyronitrile], the mortality at 2500 ppm with Megoura viciae (setting [1]), in the data set with Myzus persicae (setting [2]), with Ceratitis capitata (setting [3]) and with Anthonomus grandis (setting [3]) was above 90% in each case.
As to `CCCC(C#N)(CCSC(F)(F)F)S(=O)(=O)CCC(F)(F)C(F)(F)F` (centres unmarked) [II-18, 2-(3,3,4,4,4-Pentafluoro-butane-1-sulfonyl)-2-(2-trifluoromethylsulfanyl-ethyl)-pentanenitrile], the mortality at 2500 ppm in the data set on Ceratitis capitata (setting [3]) and in the data set on Anthonomus grandis (setting [3]) was above 90% throughout. The concentration giving a half-maximal response (EC50) in the data set with Aedes aegypti is below 5 µg/mL.
Take `CC(CCSC(F)(F)F)(C(=O)O)S(=O)(=O)CCC(F)(F)C(F)(F)F` (centres unmarked) [II-19, 2-Methyl-2-(3,3,4,4,4-pentafluoro-butane-1-sulfonyl)-4-trifluoromethylsulfanyl-butyric acid]: the mortality at 2500 ppm in the data set on Megoura viciae (setting [1]) and in the data set with Anthonomus grandis (setting [3]) was above 90% in each case.
Regarding `CC(CCSC(F)(F)F)(C(N)=O)S(=O)(=O)CCC(F)(F)C(F)(F)F` (centres unmarked) [II-20, 2-Methyl-2-(3,3,4,4,4-pentafluoro-butane-1-sulfonyl)-4-trifluoromethylsulfanyl-butyramide], the mortality at 2500 ppm with Ceratitis capitata (setting [3]) and in the data set on Anthonomus grandis (setting [3]) was above 90% each time.
`CNC(=O)C(C)(CCSC(F)(F)F)S(=O)(=O)CCC(F)(F)C(F)(F)F` (centres unmarked) [II-21, 2,N-Dimethyl-2-(3,3,4,4,4-pentafluoro-butane-1-sulfonyl)-4-trifluoromethylsulfanyl-butyramide]: the mortality at 2500 ppm in the data set on Ceratitis capitata (setting [3]) and in the data set with Anthonomus grandis (setting [3]) was above 90% in each case.
On to `CN(C)C(=O)C(C)(CCSC(F)(F)F)S(=O)(=O)CCC(F)(F)C(F)(F)F` (centres unmarked) [II-22, 2,N,N-Trimethyl-2-(3,3,4,4,4-pentafluoro-butane-1-sulfonyl)-4-trifluoromethylsulfanyl-butyramide], for which the mortality at 2500 ppm in the data set with Megoura viciae (setting [1]), in the data set on Myzus persicae (setting [2]), in the data set with Ceratitis capitata (setting [3]) and with Anthonomus grandis (setting [3]) was above 90% each time. Moreover, the EC50 with Aedes aegypti is below 5 µg/mL.
Consider `CC(CCSC(F)(F)F)(C(N)=S)S(=O)(=O)CCC(F)(F)C(F)(F)F` (centres unmarked) [II-23, 2-Methyl-2-(3,3,4,4,4-pentafluoro-butane-1-sulfonyl)-4-trifluoromethylsulfanyl-thiobutyramide], for which the mortality at 2500 ppm in the data set with Ceratitis capitata (setting [3]), with Heliothis virescens (setting [3]) and in the data set on Anthonomus grandis (setting [3]) was above 90% throughout.
Consider `N#CC(CCSC(F)(F)F)S(=O)(=O)CCC(F)(F)C(F)(F)C(F)(F)F` (centres unmarked) [II-24, 2-(3,3,4,4,5,5,5-Heptafluoro-pentane-1-sulfonyl)-4-trifluoromethylsulfanyl-butyronitrile], for which the mortality at 2500 ppm with Megoura viciae, with Myzus persicae and in the data set on Anthonomus grandis was above 90% each time.
As to `CC(C#N)(CCSC(F)(F)F)S(=O)(=O)CCC(F)(F)C(F)(F)C(F)(F)F` (centres unmarked) [II-25, 2-(3,3,4,4,5,5,5-Heptafluoro-pentane-1-sulfonyl)-2-methyl-4-trifluoromethylsulfanyl-butyronitrile], the mortality at 2500 ppm in the data set on Megoura viciae, in the data set with Myzus persicae, in the data set with Ceratitis capitata, in the data set on Heliothis virescens and with Anthonomus grandis was above 90% throughout.
Turning to `CC(C#N)(CCSC(F)(F)F)S(=O)(=O)CCSC(F)(F)F` (centres unmarked) [II-26, 2-Methyl-4-trifluoromethylsulfanyl-2-(2-trifluoromethylsulfanyl-ethanesulfonyl)-butyronitrile], in the data set on Anthonomus grandis (setting [3]), the mortality at 2500 ppm was above 90%.
